{"source": "patent US20200061062A1", "about": "“INHIBITORS OF HUMAN PHOSPHATIDYLINOSITOL 3-KINASE DELTA” (ICOS Corporation, priority 2000, published 2020)", "key": {"human neutrophils": {"system": "human neutrophils", "test": "Bactericidal capacity of neutrophils (Staphylococcus aureus killing)", "assay_type": "cell-based", "conditions": "FIG. 6; versus DMSO control", "excerpt": "Given that the PI3Kδ inhibitor D-000 affects certain neutrophil functions detailed above, it was of interest to see whether the compound affects neutrophil-mediated bacterial killing. The effect of D-000 on neutrophil-mediated Staphylococcus aureus killing was studied according to the method described by Clark and Nauseef (pp. 7.23.4-7.23.6 in Vol. 2, Supp. 6, Curr Protocols Immunol (Eds., Colligan et al.) (1994)). Purified human neutrophils (5×10^6 cells/mL) (treated with either DMSO or a serial dilution of D-000 in DMSO) were mixed with autologous serum. Overnight-grown S. aureus cells were washed, resuspended in HBSS, and added to the serum-opsonized neutrophils at a 10:1 ratio. Neutrophils were allowed to internalize the bacteria by phagocytosis by incubation at 37° C. for 20 min. The noninternalized bacteria were killed by 10 units/mL lysostaphin at 37° C. for 5 min and the total mixture was rotated at 37° C. Samples were withdrawn at various times for up to 90 min and the neutrophils were lysed by dilution in water. Viable bacteria were counted by plating appropriate dilutions on trypticase-soy-agar plate and counting the S. aureus colonies after overnight growth."}, "T cells": {"system": "T cells", "test": "T cell proliferation in response to costimulation of CD3+CD28", "assay_type": "cell-based", "conditions": "Homo sapiens, highest tested concentration 10 μM, read-out: Half-maximal inhibition of thymidine incorporation (anti-CD3- and anti-CD28-induced T cell proliferation)", "protocol": "T cell proliferation in response to costimulation of CD3+CD28 was measured. T cells were purified from healthy human blood by negative selection using antibody coated magnetic beads according to the manufacturer's protocol (Dynal) and resuspended in RPMI. The cells were treated with either DMSO or a serial dilution of D-000 in DMSO and plated at 1×10^5 cells/well on a 96-well plate precoated with goat antimouse IgG. Mouse monoclonal anti-CD3 and anti-CD28 antibodies were then added to each well at 0.2 ng/mL and 0.2 μg/mL, respectively. The plate was incubated at 37° C. for 24 hr and [^3H]-thymidine (1 μCi/well) was added. After another 18 hr incubation the cells were harvested with an automatic cell harvester, washed and the incorporated radioactivity was quantified."}, "osteoclasts": {"system": "osteoclasts", "test": "Osteoclast function, pit depths on dentine slices", "assay_type": "cell-based, mouse", "protocol": "To analyze the effect of the PI3Kδ inhibitor D-000 on osteoclasts, mouse bone marrow cells were isolated and differentiated them to osteoclasts by treating the cells with Macrophage Colony Stimulating Factor^−1 (mCSF^−1) and Osteoprotegerin Ligand (OPGL) in serum-containing medium (αMEM with 10% heat-inactivated FBS; Sigma) for 3 days. On day four, when the osteoclasts had developed, the medium was removed and cells were harvested. The osteoclasts were plated on dentine slices at 10^5 cells/well in growth medium, i.e., αMEM containing 1% serum and 2% BSA with […] and 10 ng/mL mCSF-1. After 3 hr, the medium was changed to 1% serum and 1% BSA, with or without osteopontin (25 μg/mL) and the PI3K inhibitors (100 nM). The medium was changed every 24 hours with fresh osteopontin and the inhibitors. At 72 hr, the medium was removed, and the dentine surfaces were washed with water to remove cell debris and stained with acid hematoxylin. Excess stain was washed and the pit depths were quantitated using confocal microscopy."}, "KU812": {"system": "KU812", "test": "Cancer cell proliferation, [3H]-thymidine incorporation, KU812", "assay_type": "cell-based", "conditions": "Homo sapiens, 120 h; KU812 line; five days; read-out: EC50, inhibition of cell growth", "protocol": "(§1) The effect of compounds of the invention on cancer cell proliferation was evaluated by testing one of the compounds against a panel of Chronic Myeloid Leukemia (CML) cell lines, including KU812, RWLeu4, K562, and MEG-01.\n(§2) The inhibitory activity of the compound (D-000, dissolved in DMSO) was determined as follows. The tested compound was added in a series of concentrations (0.001 μM to 20 μM) to 96-well microtiter plates with cells (1000 to 5000 cells/well). Plates were incubated for five days at 37° C. during which the control cultures without test compound were able to undergo at least two cell-division cycles. Cell growth was measured by incorporation of [^3H]-thymidine for eighteen hours added at days three, four, and five. Cells were transferred to a filter, washed and the radioactivity counted using a Matrix 96 beta counter (Packard). The percentage of cell growth was measured as follows: […]"}, "K562": {"system": "K562", "test": "Cancer cell proliferation, [3H]-thymidine incorporation, K562", "assay_type": "cell-based", "conditions": "K562 line; 0.001 μM to 20 μM", "protocol": "as §1, §2"}, "basophils": {"system": "basophils", "test": "Basophil histamine release assay", "assay_type": "cell-based, human", "protocol": "Assessment of the effect of a compound of the invention on basophil function was tested using a conventional histamine release assay, generally in accordance with the method described in Miura et al., J Immunol, 162:4198-206 (1999). Briefly, enriched basophils were preincubated with test compounds at several concentrations from 0.1 nM to 1,000 nM, for 10 min at 37° C. Then, polyclonal goat antihuman IgE (0.1 μg/mL) or fMLP was added, and allowed to incubate for an additional 30 min. Histamine released into the supernatant was measured using an automated fluorometric technique. Two compounds were tested, shown below."}}, "data": [{"molecule": "O=c1c2ccccc2nc(CSc2ncnc3[nH]cnc23)n1-c1ccccc1Cl", "note": "[Compound D-000, 3-(2-chlorophenyl)-2-(9H-purin-6-ylsulfanylmethyl)-3H-quinazolin-4-one]", "values": [{"measurement": "Effect on neutrophil-mediated killing of S. aureus", "setting": "human neutrophils", "value": "does not significantly affect"}, {"measurement": "IC50", "setting": "T cells", "value": "> 10000", "unit": "nM"}, {"measurement": "Effect on osteoclast activity", "setting": "osteoclasts; 100 nM", "value": "almost completely inhibited"}, {"measurement": "Pit depths (osteoclast activity), Table 1", "setting": "osteoclasts; inhibitor 100 nM + osteopontin (OPN) 25 μg/mL, 72 hr, two experiments, OPN alone 10 ± 0.5 and 9 ± 0.4", "value": 1}, {"measurement": "EC50", "setting": "KU812", "value": "~2000", "unit": "nM"}, {"measurement": "Effect on cell growth", "setting": "K562", "value": "not found to exhibit an effect"}]}, {"molecule": "O=c1c2ccccc2nc(CSc2ncnc3[nH]ncc23)n1-c1ccccc1Cl", "note": "[Compound D-999, 3-(2-Chlorophenyl)-2-(1H-pyrazolo[3,4-d]pyrimidin-4-ylsulfanylmethyl)-3H-quinazolin-4-one, reference compound]", "values": [{"measurement": "Efficacy in the inhibition of histamine release compared with D-026", "setting": "basophils; anti-IgE", "value": "less efficacious"}, {"measurement": "Effect on histamine release, basophils stimulated with fMLP", "setting": "basophils; fMLP stimulus", "value": "Neither compound elicited any effect"}]}]}
